System: red blood cells
Experiment: Haemolysis assay
Assay type: cell-based
Settings: human red blood cells, 1 h at 37 ℃
Experimental: The surfactant may be absorbed and penetrate to the cell membrane, where it makes osmotic phenomena by altering the permeability of membrane, which in turn causes the cellular lysis. Haemolysis assay gives quantitative estimation about haemoglobin release when red blood cells are treated with QASs. Haemolytic assay of QASs at different concentration was carried out in Table 4. […] For 5a-b, 6a-b, 10a-c, 13a-b, and 16a-d, their safe concentration can more than 100 μg/mL. Compared with BZK and CA, all QASs were safe to be used when they circulated into the blood in low concentration. […]
The human blood from healthy individual was collected in a tube containing heparin, and the blood was centrifuged at 1500 rpm for 3 min. The […] (Erythrocyte) was collected and plasma was discarded and further washed five times with sterile normal saline solution. Then the cells were diluted to 0.2% of their volume with normal saline solution. 2 mL of the diluted red blood cells suspension was mixed with (a) 2 mL of normal salinesolution as a negative control; (b) 2 mL of distilled water as a positive control; (c) 2 mL of QAS solution which were dispersed into normal saline solution at the different concentrations ranging from 3.125 to 400 μg/mL. Then the mixtures were shaken well and incubated for 1 h at 37 ℃. Finally, the mixtures were centrifuged for 5min at 2000 r/min and the absorbances of supernatant at 540 nm was measured by a microplate reader (Multiskan MK3-Thermo Labsystems, USA). The hemolysis ratio was calculated as follows: The hemolysis ratio(%) = (OD Sample−OD Negative)/(OD Positive −OD Negative) ×100%. The hemolysis evaluation of QASs was performed in triplicate and results were expressed as the mean ± SD.

“Benzalkonium chloride [BZK, reference compound]” was tested, and the Haemolysis rate (6.25 μg/mL) was 1.51 ± 0.31%, the Haemolysis rate (12.50 μg/mL) was 1.39 ± 0.38% and the Haemolysis rate (25.00 μg/mL) was 12.69 ± 1.87%. The Haemolysis rate (50.00 μg/mL) was 63.85 ± 4.56%, the Haemolysis rate (100.00 μg/mL) was 92.36 ± 3.78% and the Haemolysis rate (200.00 μg/mL) was 96.28 ± 2.97%. It also gave a Haemolysis rate (400.00 μg/mL) of 98.53 ± 1.23%.
